Earlier results in patent EP0497915B1, “hPTH (1-37) FRAGMENT, ITS PRODUCTION, DRUG CONTAINING IT AND ITS USE” (HaemoPep Pharma GmbH, priority 1989, dated 1991).

B1: hPTH-(1-84): sezerniertes PTH-Molekül aus 84 Aminosäuren (peptide, UniProt P01270 32-115, looked up)
Parathyroid hormone: SVSEIQLMHNLGKHLNSMERVEWLRKKLQDVHNFVALGAPLAPRDAGSQRPRKKEDNVLVESHEKSLGEADKADVNVLTKAKSQ
modifications: Parathyroid hormone
notes: sezerniertes PTH-Molekül aus 84 Aminosäuren

Columns and labels:
hPTH-(53-84)-RIA = conditions: commercial RIA (Immundiagnostik), manufacturer's data
hPTH-(44-68)-RIA = conditions: commercial RIA (Immundiagnostik), manufacturer's data

Molecule | Kreuzreaktion im hPTH-(53-84)-RIA (hPTH-(53-84)-RIA) | Kreuzreaktion im hPTH-(44-68)-RIA (hPTH-(44-68)-RIA)
hPTH-(1-34): bekanntes synthetisches N-terminales hPTH-Fragment (SVSEIQLMHNLGKHLNSMERVEWLRKKLQDVHNF; Parathyroid hormone; UniProt P01270 32-65, looked up, fragment) | keine Kreuzreaktion | keine Kreuzreaktion
hPTH-(28-48): synthetisches hPTH-Peptid (LQDVHNFVALGAPLAPRDAGS; Parathyroid hormone; UniProt P01270 59-79, looked up, fragment) | keine Kreuzreaktion | keine Kreuzreaktion
hPTH-(44-68): synthetisches hPTH-Peptid, Standard des mittelregionalen RIA (RDAGSQRPRKKEDNVLVESHEKSLG; Parathyroid hormone; UniProt P01270 75-99, looked up, fragment) | keine Kreuzreaktion | 
hPTH-(53-84): synthetisches hPTH-Peptid, Standard des C-terminalen RIA (KKEDNVLVESHEKSLGEADKADVNVLTKAKSQ; Parathyroid hormone; UniProt P01270 84-115, looked up, fragment) |  | 100%
hPTH-(64-84): synthetisches hPTH-Peptid (EKSLGEADKADVNVLTKAKSQ; Parathyroid hormone; UniProt P01270 95-115, looked up, fragment) | 100% | keine Kreuzreaktion
B1 | 100% | 100%
